Test results taken from publication PMC11528044 (Nature Communications, 2024).
Read-outs that look alike come from different tables or passages of the source. Marks after values point to notes of the source that are not given here.

Columns and labels:
[1] = molecular target: T1, LdCYP5122A1 (Leishmania donovani, UniProt A0A3S7X0B6)
T1 sequence (A0A3S7X0B6 61-592): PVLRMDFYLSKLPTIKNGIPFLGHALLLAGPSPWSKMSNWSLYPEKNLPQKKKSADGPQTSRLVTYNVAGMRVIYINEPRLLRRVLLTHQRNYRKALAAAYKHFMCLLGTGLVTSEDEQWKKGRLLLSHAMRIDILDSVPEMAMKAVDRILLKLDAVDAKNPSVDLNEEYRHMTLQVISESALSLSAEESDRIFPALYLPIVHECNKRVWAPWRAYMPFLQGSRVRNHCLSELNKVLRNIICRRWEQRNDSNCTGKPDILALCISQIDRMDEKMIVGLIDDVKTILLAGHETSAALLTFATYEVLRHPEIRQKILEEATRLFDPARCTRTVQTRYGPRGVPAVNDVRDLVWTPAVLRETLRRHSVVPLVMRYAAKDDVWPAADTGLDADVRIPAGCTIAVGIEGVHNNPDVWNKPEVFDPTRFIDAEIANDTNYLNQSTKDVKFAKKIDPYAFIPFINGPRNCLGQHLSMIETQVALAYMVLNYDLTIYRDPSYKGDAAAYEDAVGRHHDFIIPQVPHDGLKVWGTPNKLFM

[2] = system: L. donovani strain 1S2D promastigotes (Ld1S WT and CYP5122A1 mutants); settings: 48 hours; for EC50: read-out: EC50, promastigote growth
[3] = system: intracellular amastigotes; settings: ref Wang et al. (ref. 45); cited from earlier work
[4] = molecular target: T2, LdCYP51 (Leishmania donovani, UniProt A0A3S7WRS7)
T2 sequence (A0A3S7WRS7 32-480): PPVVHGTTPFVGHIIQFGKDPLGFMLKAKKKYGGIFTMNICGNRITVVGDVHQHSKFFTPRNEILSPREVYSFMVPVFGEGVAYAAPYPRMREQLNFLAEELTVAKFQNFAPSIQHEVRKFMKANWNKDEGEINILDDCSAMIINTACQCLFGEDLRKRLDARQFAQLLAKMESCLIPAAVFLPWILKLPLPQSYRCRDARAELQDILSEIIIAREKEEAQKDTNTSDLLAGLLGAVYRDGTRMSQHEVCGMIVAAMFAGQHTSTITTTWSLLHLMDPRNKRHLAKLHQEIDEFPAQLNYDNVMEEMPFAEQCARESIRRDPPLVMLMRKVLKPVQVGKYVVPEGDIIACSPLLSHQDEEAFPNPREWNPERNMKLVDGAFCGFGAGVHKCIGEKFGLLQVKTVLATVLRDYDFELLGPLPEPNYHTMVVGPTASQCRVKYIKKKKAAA

[5] = system: L. donovani LV82 promastigotes; experiment: microbe, parasite or virus in culture; settings: Leishmania donovani, 72 h, read-out: EC50 (L. donovani)
[6] = molecular target: T1, LdCYP5122A1; experiment: biochemical
[7] = molecular target: T2, LdCYP51; experiment: biochemical
[8] = system: intracellular amastigotes of L. infantum; settings: cited from earlier work; for EC50: read-out: EC50, elimination of intracellular amastigotes of L. infantum
[9] = system: L. donovani strain 1S2D promastigotes (Ld1S WT and CYP5122A1 mutants); experiment: microbe, parasite or virus in culture; settings: Leishmania donovani, 48 h
[10] = system: L. donovani LV82 promastigote cultures; experiment: Microscopic counts of LV82 promastigote cultures; assay type: cell-based, Leishmania donovani; settings: LV82 promastigotes, cell counts daily for three days
[11] = molecular target: T3, L. donovani CYP5122A1 (Leishmania donovani, UniProt A0A3S7X0B6); experiment: UV-Vis difference binding spectra of ligands with purified recombinant CYP5122A1
T3 sequence (A0A3S7X0B6 61-592): T1 sequence (A0A3S7X0B6 61-592)

[12] = system: intracellular L. donovani parasites; experiment: Intracellular L. donovani in infected peritoneal macrophage assay; assay type: cell-based, Leishmania donovani; settings: Supplementary Fig. 12
[13] = molecular target: L. donovani CYP51 (Leishmania donovani, UniProt A0A3S7WRS7); experiment: UV-Vis difference binding spectra of ligands with purified recombinant CYP51
Chain of L. donovani CYP51 (A0A3S7WRS7 32-480): as above

[14] = system: sterol profile of LV82 promastigotes; experiment: LC-MS/MS sterol analysis of inhibitor-treated LV82 promastigotes; assay type: cell-based, Leishmania donovani; settings: 50 μM voriconazole vs. DMSO, 24 hr
[15] = system: intracellular L. major and L. amazonensis; settings: 10 μM; cited from earlier work

## CC(C)Oc1cc(NC(=N)c2ccccn2)ccc1-c1ccc(-c2ccc(NC(=N)c3ccccn3)cc2OC(C)C)o1 [DB766]
[1]
  Selectivity for CYP5122A1 over CYP51: > 30 fold
[1]; read-out: IC50 (LdCYP5122A1), mean ± standard deviation (n = 3)
  IC50: 1000 ± 100 nM
[2]; CYP5122A1 overexpressors
  EC50: ~12 nM
[2]; WT and Ld22A1 + /‒
  EC50: 1 to 4 nM
[3]
  IC50 vs. intracellular amastigotes (printed in column EC50 (L. donovani)): 0.036^f μM
[4]; 30 μM
  % inhibition of LdCYP51 at 30 μM: <30% inhibition at 30 μM

## Clc1ccc(C(Cn2ccnc2)OCc2ccc(Sc3ccccc3)cc2)c(Cl)c1 (centres unmarked) [Fenticonazole]
[5]
  EC50: 5600 ± 300 nM
[1]
  SI (selectivity index) = IC50 against LdCYP5122A1/IC50 against LdCYP51: 8.0
[6]
  IC50: 650 ± 80 nM
[7]
  IC50: 81 ± 2 nM
[8]
  EC50: 2900 ± 300 nM

## CCCCCCCCCCCCCCCCOP(=O)([O-])OCC[N+](C)(C)C [Miltefosine]
[1]
  SI (selectivity index) = IC50 against LdCYP5122A1/IC50 against LdCYP51: 3.5
[6]
  IC50: 43000 ± 1000 nM
[7]
  IC50: 12000 ± 1000 nM
[3]
  IC50 vs. intracellular amastigotes (printed in column EC50 (L. donovani)): 2.7^e μM

## NC[C@@H]1O[C@H](O[C@H]2[C@@H](O)[C@H](O[C@@H]3[C@@H](O)[C@H](N)C[C@H](N)[C@H]3O[C@H]3O[C@H](CO)[C@@H](O)[C@H](O)[C@H]3N)O[C@@H]2CO)[C@H](N)[C@@H](O)[C@@H]1O [Paromomycin]
[3]
  IC50 vs. intracellular amastigotes (printed in column EC50 (L. donovani)): >50^e μM

## CC[C@@H]([C@H](C)O)n1ncn(-c2ccc(N3CCN(c4ccc(OC[C@@H]5CO[C@@](Cn6cncn6)(c6ccc(F)cc6F)C5)cc4)CC3)cc2)c1=O [Posaconazole]
[9]; read-out: Concentration sufficient to reach EC50
  EC50: 100 nM
[9]; read-out: EC50, promastigote growth
  EC50: ~25000 nM
[2]; Ld1S WT, bi-phasic response
  Concentration needed to inhibit growth further: more than 12 μM
[10]
  Leishmanicidal vs. leishmanistatic effect: leishmanistatic effect
[11]
  Binding mode with CYP5122A1 (difference binding spectrum): type II-like binding
[12]
  Effect on intracellular L. donovani parasites: more effective than fluconazole
[13]
  Binding mode with CYP51 (difference binding spectrum): type II binding

## Clc1ccc(C(Cn2ccnc2)OCc2ccsc2Cl)c(Cl)c1 (centres unmarked) [Tioconazole]
[5]
  EC50: 9500 ± 600 nM
[1]
  SI (selectivity index) = IC50 against LdCYP5122A1/IC50 against LdCYP51: 20
[6]
  IC50: 1100 ± 200 nM
[7]
  IC50: 54 ± 8 nM
[8]
  EC50: 4000 ± 200 nM

## C[C@@H](c1ncncc1F)[C@](O)(Cn1cncn1)c1ccc(F)cc1F [Voriconazole]
[5]
  EC50: > 100000 nM
[1]
  SI (selectivity index) = IC50 against LdCYP5122A1/IC50 against LdCYP51: >1176
[6]
  IC50: > 100000 nM
[6]; read-out: % inhibition of CYP5122A1 at 100 μM
  inhibition at 100 µM: < 28%
[11]
  Binding mode with CYP5122A1 (difference binding spectrum): no specific responses
[14]
  4,14-Dimethylzymosterol level normalized to DMSO-treated parasites: 17 ± 2
  4CH2OH-LS level normalized to DMSO-treated parasites: 0.83 ± 0.09
  5-Dehydroepisterol level normalized to DMSO-treated parasites: 0.078 ± 0.043
  7-Dehydrodesmosterol level normalized to DMSO-treated parasites: 0^d,**
  14-Methylfecosterol level normalized to DMSO-treated parasites: Accumulated^a,***
  14-Methylzymosterol level normalized to DMSO-treated parasites: 8.0 ± 1.0
  Cholesterol (exogenous) level normalized to DMSO-treated parasites: 0.88 ± 0.07
  Ergosta-5,7-dienol level normalized to DMSO-treated parasites: 0.39 ± 0.11
  Ergostatetraenol level normalized to DMSO-treated parasites: 0.086 ± 0.027
  Ergosterol level normalized to DMSO-treated parasites: 0.30 ± 0.08
  FF-MAS level normalized to DMSO-treated parasites: Not detected
  Lanosterol level normalized to DMSO-treated parasites: 1.6 ± 0.2
  T-MAS level normalized to DMSO-treated parasites: Not detected
[14]; not separated from cholesta-7,24-dienol
  Zymosterol level normalized to DMSO-treated parasites: 0.067 ± 0.034
[14]; not separated from episterol and fecosterol
  4-Methylzymosterol level normalized to DMSO-treated parasites: 0.18 ± 0.06
[7]
  IC50: 85 ± 17 nM
[13]
  Binding mode with CYP51 (difference binding spectrum): type II binding
[4]
  Selectivity for CYP51 over CYP5122A1: > 1176 fold
[15]
  Inhibition of intracellular parasites: < 50%
[8]
  EC50, elimination of intracellular amastigotes of L. infantum: failed
